Test results reported in patent US20090118135A1, “METHODS AND COMPOUNDS FOR REGULATING APOPTOSIS” (The Burnham Institute, priority 2007, published 2009).
Like-named read-outs stand apart in the source and are kept apart here.

Legend:
[1] = target: T1, GST-Bcl-B (Homo sapiens, UniProt Q9HD36); test: Bcl-B/FITC-TR3-r8 fluorescence polarization competition (displacement) assay, HTS and dose-response
T1 sequence (Q9HD36 1-182 limits assumed): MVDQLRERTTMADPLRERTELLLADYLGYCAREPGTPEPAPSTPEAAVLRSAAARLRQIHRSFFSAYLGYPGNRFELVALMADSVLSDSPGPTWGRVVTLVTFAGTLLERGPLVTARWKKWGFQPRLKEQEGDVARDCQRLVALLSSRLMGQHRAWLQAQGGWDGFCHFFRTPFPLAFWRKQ

[2] = target: T2, GST-Bfl-1 (Homo sapiens, UniProt Q16548); test: Bfl-1/FITC-Bid BH3 competitive fluorescence polarization assay; format: binding; settings: primary HTS hits, MLSCN library (PubChem SIDs), Table 5B
T2 construct: lacking their C-terminal transmembrane domains (about the last 20 amino acids) (“ΔTM”); made in house; host or cells: XL-1 Blue E. coli, pGEX 4T-1
T2 sequence (Q16548 1-155 limits assumed): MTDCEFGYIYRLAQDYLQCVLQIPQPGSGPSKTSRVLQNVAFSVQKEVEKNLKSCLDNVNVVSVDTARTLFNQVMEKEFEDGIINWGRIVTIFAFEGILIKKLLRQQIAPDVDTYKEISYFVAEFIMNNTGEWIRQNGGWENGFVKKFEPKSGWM

[3] = Table 8, NCI Structural library, Binding Assay, FP, Concentration 0.02 uM
[4] = read-out: Result Value (Result Type % Inhibition), BCL-b/TR3
[5] = Table 7, NCI Mechanistic library, Binding Assay, FP, Concentration 0.02 uM
[6] = LOPAC1280 library primary screen
[7] = LOPAC1280 library, fluorescence intensity normalized to plate negative controls
[8] = read-out: Result Value (% Inhibition)

| SMILES | % Activity [2] | FRatio [2] | other results |
| --- | --- | --- | --- |
| CC(=O)O.CCN(CC)CC[n+]1ccc2c(C)c3[nH]c4ccc(O)cc4c3c(C)c2c1 [Compound 311152] | – | – | F Ratio [1, 3]: 0.7711; Is Hit [1, 3]: Yes; inhibition at 0.02 µM [1, 4]: 128% |
| COc1cc(-c2[o+]c3cc(O)cc(O)c3cc2O)cc(O)c1O.O=C(O)c1ccccc1 [Compound 114885] | – | – | F Ratio [1, 3]: 0.08249; Is Hit [1, 3]: Yes; inhibition at 0.02 µM ([1]; read-out: Result Value (Result Type % Inhibition), BCL-b/TR3, Table 8, NCI Structural library, Binding Assay, FP, Concentration 0.02 uM): 108% |
| Cc1ccc(/N=N/c2c(O)c(S(=O)(=O)O)cc3cc(S(=O)(=O)O)ccc23)c(C)c1 [Compound 10455] | – | – | F Ratio [1]: 0.4406; Is Hit [1]: Yes; inhibition at 0.02 µM [1, 4]: 50.7% |
| O=C(O)c1cnc2c(ccc3ncc(C(=O)O)c(O)c32)c1O [Compound 128884] | – | – | F Ratio [1, 3]: 0.205; Is Hit [1, 3]: Yes; inhibition at 0.02 µM [1, 4]: 55.3% |
| O=C(O)c1cccc(/N=N/c2c(S(=O)(=O)O)ccc3c2C(=O)c2ccccc2C3=O)c1O [Compound 125908] | – | – | F Ratio [1, 3]: 0.2215; Is Hit [1, 3]: Yes; inhibition at 0.02 µM [1, 4]: 124% |
| Cc1nn(-c2ccc(S(=O)(=O)O)cc2)c(O)c1/N=N/c1ccc(-c2ccc(/N=N/c3ccc4c(S(=O)(=O)O)cc(S(=O)(=O)O)c(N)c4c3O)c(O)c2)cc1O [Compound 306711] | – | – | F Ratio [1, 3]: 0.08966; Is Hit [1, 3]: Yes; inhibition at 0.02 µM [1, 4]: 154% |
| CN(C)c1ccc(/C=c2\c3n(c4ccccc24)N(C)C(c2ccc(Cl)cc2)C=3)cc1.O=S(=O)(O)C(F)(F)F (stereo not shown) [Compound 699479] | – | – | F Ratio [1, 5]: 0.1793; Is Hit [1, 5]: Yes; inhibition at 0.02 µM [1, 4]: 60.6% |
| [NH3+][Ru]([NH3+])([NH3+])([NH3+])([NH3+])[O][Ru]([NH3+])([NH3+])([NH3+])([NH3+])[O][Ru]([NH3+])([NH3+])([NH3+])([NH3+])[NH3+] [R 2751] | – | – | Is Hit [1, 6]: Yes; F Ratio [1, 7]: 1.1267 |
| O=c1c(O)c(-c2cc(O)c(O)c(O)c2)oc2cc(O)cc(O)c12 [M 6750] | – | – | Is Hit [1, 6]: Yes; F Ratio [1, 7]: 0.1247; inhibition at 0.02 µM [1, 8]: 61% |
| O=c1cc(O)cc(/C=C/c2ccc(O)c(O)c2)o1 [H 5257] | – | – | Is Hit [1, 6]: Yes; F Ratio [1, 7]: 0.0971; inhibition at 0.02 µM [1, 8]: 77% |
| Nc1nc(Sc2ccc([N+](=O)[O-])c3nonc23)c2nc[nH]c2n1 [Compound 348401] | – | – | F Ratio [1, 3]: 1.4788; Is Hit [1, 3]: Yes; inhibition at 0.02 µM [1, 4]: 68.6% |
| COc1ccc2c(NCCCCCCNc3c4ccccc4nc4cc(OC)ccc34)c3ccccc3nc2c1 [Compound 260610] | – | – | F Ratio [1, 5]: 0.269; Is Hit [1, 5]: Yes; inhibition at 0.02 µM [1, 4]: 53.3% |
| CCOc1ccc2nc3cc(/N=N/c4ccc(N)nc4N)ccc3c(N)c2c1.Cl [Compound 354961] | – | – | F Ratio [1, 3]: 1.1279; Is Hit [1, 3]: Yes; inhibition at 0.02 µM [1, 4]: 150% |
| C[C@]12CC[C@H]3[C@@H](CCC4=CC(=O)CC[C@@]43C)[C@@H]1CC[C@@H]2C(=O)COS(=O)(=O)c1ccc(Br)cc1 [Compound 88915] | – | – | F Ratio [1, 3]: 0.2647; Is Hit [1, 3]: Yes; inhibition at 0.02 µM [1, 4]: 61.4% |
| Cc1ccc(NC(=O)CSc2nnc(-c3ccco3)c(-c3ccco3)n2)cc1 [Compound 860242] | 56.9% | 1.34 | – |
| Cc1ccc(CNc2ccc3c(c2)OCO3)cc1 [Compound 4257119] | 50.6% | 1.2 | – |
| CCn1ccc(C(=O)Nc2ccc(S(=O)(=O)Nc3ccccc3OC)cc2)n1 [Compound 4241115] | 82% | 0.87 | – |
| Cc1ccc(NC(=O)Nc2cccs2)c(Cl)c1 [Compound 14734202] | 66.3% | 1.39 | – |
| Cc1cc2c(cc1C)NC(c1c(C)n(C)n(-c3ccccc3)c1=O)C1=C(O)CC(C)(C)CC1=N2 (stereo not shown) [Compound 4265815] | 58.3% | 1.46 | – |
| CCCC1=C(C(=O)OCC)C(c2cc(Cl)cc(OC)c2OCC(=O)OCC)NC(=O)N1 (stereo not shown) [Compound 4262430] | 50.9% | 1.19 | – |
| CCc1ccc(NC(=O)c2noc3c2CCC3)cc1 [Compound 14733222] | 68.1% | 0.73 | – |
| O=C(NCCCN1CCN(Cc2ccccc2)CC1)C1CCN(c2nnc(-n3cccc3)s2)CC1 [Compound 4250401] | 50.8% | 0.86 | – |
| Cc1nc(NC(=O)c2ccco2)sc1-c1csc(Nc2ccc(Cl)cc2Cl)n1 [Compound 17410012] | 54.4% | 0.7 | – |
| CCOC(=O)c1ccc2c(c1)C1C=CCC1C(C(=O)O)N2 (stereo not shown) [Compound 4263567] | 111.5% | 0.4 | – |
| Cc1ccc(OCCSc2nnc(-c3ccncc3)n2C)cc1 [Compound 3712590] | 68.9% | 0.91 | – |
| Cc1ccc(OCCC(=O)OCC(=O)Nc2ccc(Cl)cn2)cc1 [Compound 3713376] | 54.8% | 1.43 | – |
| COc1cc(CNCCc2c[nH]c3ccccc23)ccc1OCc1ccc(F)cc1 [Compound 17386700] | 76.5% | 0.84 | – |

| SMILES | % Activity [2] | FRatio [2] | other results |
| --- | --- | --- | --- |
| O=C(COC(=O)CN1C(=O)c2ccccc2C1=O)Nc1ncc(Cl)cc1Cl [Compound 3711621] | 58.7% | 1.36 | – |
| O=C(Cc1cnn(-c2ccccc2)c1)c1ccc(O)c(O)c1O [Compound 14732615] | 57.8% | 0.74 | – |
| C=CCN1C(=O)/C(=C2/C(=O)N(CC(=O)O)c3ccccc32)S/C1=N\c1nccs1 [Compound 17401584] | 131.8% | 0.83 | – |
| CCC1=NNc2cccc3c(OC)ccc1c23 [Compound 14740154] | 83.6% | 1 | – |
| CC(=O)c1ccc(NC(=O)c2ccc3nc(-c4ccco4)c(-c4ccco4)nc3c2)cc1 [Compound 14740115] | 59.5% | 0.97 | – |
| CCOC(=O)N1CCN(c2cc(NCCC(=O)O)c3c4c(onc24)-c2ccccc2C3=O)CC1 [Compound 4252106] | 78.1% | 0.86 | – |
| O=C(CSc1nnc(-c2ccco2)c(-c2ccco2)n1)Nc1ccccc1 [Compound 860234] | 71.5% | 1.17 | – |
| Cc1cc(Cl)ccc1OCC(=O)OC(C)C(=O)N(C)C (stereo not shown) [Compound 867049] | 53.3% | 0.78 | – |
| O=C(Cc1ccccc1)Nc1ccc(N2CCCC2)cc1 [Compound 14739360] | 59.1% | 0.93 | – |
| O=C(N/N=C/c1ccc(F)cc1)c1cc(-c2ccco2)nc2ccccc12 [Compound 17408998] | 84.8% | 0.87 | – |
| O=C(Nc1ccccc1)c1ccc2nc(-c3ccco3)c(-c3ccco3)nc2c1 [Compound 4258186] | 52.2% | 0.88 | – |
| COc1cccc(C(=O)NC2CC3CCCC(C2)N3CC(=O)Nc2ccccc2)c1 (stereo not shown) [Compound 847772] | 90% | 0.72 | – |
| Cc1ccc(C(=O)ONc2ccc(/N=N/C(=O)c3ccccc3O)cc2)cc1 [Compound 14732345] | 108.7% | 0.83 | – |
| Cc1ccc(/N=N/c2ccc(O)c(/C=N/NC(=O)c3ccc(N)cc3)c2)cc1C [Compound 16952937] | 91.7% | 0.71 | – |
| Cc1ccc(C)n1-c1cccc(C(=O)O)c1 [Compound 4257870] | 95.8% | 0.65 | – |
| Cc1ccc(S(=O)(=O)NCC(=O)OCC(=O)Nc2ncc(Cl)cc2Cl)cc1 [Compound 3711819] | 63.4% | 0.8 | – |
| O=C(CSc1ccc(Cl)cc1)c1ccco1 [Compound 3711335] | 75.2% | 0.83 | – |
| Cc1cc(C)c(NC(=O)CN(c2ccccc2)S(=O)(=O)N(C)C)c(C)c1 [Compound 14746364] | 90.5% | 0.65 | – |
| c1cc2c3c(cccc3c1)NC1(CCCCCC1)N2 [Compound 4263637] | 64.3% | 0.58 | – |
| Cc1cc(OCC(=O)Nc2ccc(N3CCCC3)cc2)cc(C)c1Cl [Compound 14734365] | 59.3% | 0.71 | – |
| C=CCn1c(SCC(=O)OC)nc2sc3c(c2c1=O)CCN(C)C3 [Compound 856802] | 53.2% | 1.23 | – |
| Cc1ccc(S(=O)(=O)Cc2ccc(C(=O)N3CCc4ccccc4C3)o2)cc1 [Compound 14733336] | 60.8% | 0.93 | – |
| Clc1ccc2nc(CN3CCCc4ccccc43)cn2c1 [Compound 3711377] | 61.3% | 0.75 | – |
| Brc1ccc2ncnc(Nc3ccc(N4CCOCC4)cc3)c2c1 [Compound 7975247] | 86.8% | 0.87 | – |
| CN(C)CCSc1nc(N)c2c3c(sc2n1)CN(C)CC3 [Compound 862887] | 72.8% | 0.98 | – |
| Cc1ccc(-n2c(SCc3cc(=O)n4ccsc4n3)nnc2-c2cccnc2)c(C)c1 [Compound 3712302] | 80.3% | 0.96 | – |
| CCC(=O)Nc1cccc(NC(C)=O)c1 [Compound 14746435] | 92.4% | 0.85 | – |
